These results are taken from patent US20150265680A1, “THERAPEUTIC AGENT FOR AMYOTROPHIC LATERAL SCLEROSIS” (DAIICHI SANKYO COMPANY, LIMITED, priority 2012, published 2015).

Marks after values point to notes of the source that are not given here. Where a SMILES comes first, the peptide text is derived from it. Where no end group is shown, it is not given here. [ ]: non-standard residue; d: D form. The star is where a group is joined. d2Nal = N[C@H](Cc1ccc2ccccc2c1)C(=O)O; Octanoyl = CCCCCCCC(=O)*

Assay [1] concerns SOD1^G93A mice. Briefly: Repeated subcutaneous GHRP-6 or anamorelin from the age of 10 weeks: body weight, food intake, survival (Example 9). In kind it is in vivo, mouse. The conditions noted are these: mean ± SE; for Survival period: 1 mg/kg subcutaneously twice a day from age 10 weeks until death; for Amount of change in body weight / Food intake: 1 mg/kg subcutaneously twice a day from age 10 weeks, after 5-weeks of administration. As to the method:
In the experiment, 10-week-old SOD1^G93A mice were used, which were divided into 3 groups: a vehicle group, a GHRP-6 group, and an anamorelin group. GHRP-6 (1 mg/kg), anamorelin (1 mg/kg), or a vehicle (5% mannitol solution) was subcutaneously administered thereto twice a day from the age of 10 weeks until death. Their body weight and feed weight were measured before the start of administration and after 5-weeks of administration to calculate the amount of change in body weight and food intake. The survival period of each individual was also analyzed.

The test system of assay [2] is rat adrenal pheochromocytoma-derived PC-12 cells. The conditions noted are these: cited from earlier work.
In assay [3] the test system is SOD1^G93A mice. Briefly: Continuous subcutaneous human ghrelin from the age of 10 weeks: body weight, food intake, skeletal muscle mass, cholesterol, muscle strength, survival (Example 3). It is filed as in vivo, mouse. As to the method:
In some Examples, the WT mice were also used.
(§1) In the experiment, 10-week-old SOD1^G93A mice were used, which were divided into 2 groups: a vehicle group and a human ghrelin group. Human ghrelin (50 μg/day, approximately 2 mg/kg/day) was dissolved in a vehicle (saline solution) to prepare a dosing solution. An osmotic pump (ALZET® MINI-OSMOTIC PUMP MODEL 1004, DURECT Corporation) filled with the dosing solution or a saline solution was subcutaneously implanted into the back of each mouse for continuous subcutaneous administration. The administration was started from the age of 10 weeks and continued to the live individuals with the osmotic pump replaced with a fresh one every 4 weeks.
Their body weight and feed weight was measured before the start of administration and after 8-weeks of administration to calculate the amount of change in body weight and the food intake. After 8-weeks of administration, the lower-body skeletal muscle masses of the mice were measured using X-ray CT (Latheta LCT-200, Hitachi Aloka Medical, Ltd.). The plasma total cholesterol concentrations were measured with Cholesterol E—Test Wako (Wako Pure Chemical Industries, Ltd.) using plasma separated from blood collected from the tail vein after 8-weeks of administration. The forelimb muscle strengths were measured using a rat/mouse simple sthenometer; 200 g scale (O'HARA & CO., LTD.) on the 16th week of age. The survival period of each individual was also analyzed.

Assay [4] deals with SOD1^G93A mice. Nature of the assay: Motor neuron protective effect of continuous subcutaneous human ghrelin, Nissl-stained T9 spinal cord sections (Example 4). The conditions noted are these: relative to WT control group = 100%; 50 μg/day continuous subcutaneous, 7 weeks after start, T9 anterior horn; mean ± SE. It is filed as in vivo, mouse. As for the experimental part:
In the experiment, 10-week-old SOD1^G93A and WT mice were used. […] Vehicle-administered WT mice were used as a control group. Human ghrelin (50 μg/day, approximately 2 mg/kg/day) was dissolved in a vehicle (saline solution) to prepare a dosing solution. An osmotic pump (ALZET® MINI-OSMOTIC PUMP MODEL 1004, DURECT Corporation) filled with the dosing solution or a saline solution was subcutaneously implanted into the back of each mouse for continuous subcutaneous administration. The administration was started from the age of 10 weeks and continued after replacement of the osmotic pump with a fresh one 4 weeks later. Seven weeks after the start of administration, the mice were anatomized, and the T9 regions of their spinal cords were extracted. Nissl-stained sections were prepared, and the number of motor neurons was histologically identified. Three non-adjacent sections were used per individual to measure the number of motor neurons present in the anterior horn. The measurement value of each group was calculated as a relative value when the average number of motor neurons in the control group was defined as 100%.

Assay [5] deals with SOD1^G93A mice. Nature of the assay: Repeated subcutaneous human ghrelin from the age of 10 weeks: body weight, food intake, muscle strength, survival (Example 5). It is filed as in vivo, mouse. As for the experimental part: In the experiment, 10-week-old SOD1^G93A mice were used, which were divided into 2 groups: a vehicle group and a human ghrelin group. Human ghrelin (1 mg/kg) or a vehicle (5% mannitol solution) was subcutaneously administered thereto twice a day from the age of 10 weeks until death. Their body weights and feed weights were measured before the start of administration and after 8-weeks of administration to calculate the amount of change in body weights and the food intakes. The forelimb muscle strengths were measured using a rat/mouse simple sthenometer; 200 g scale (O'HARA & CO., LTD.) before the start of administration and after 8-weeks of administration. The survival period of each individual was also analyzed.

Assay [6] concerns SOD1^G93A mice. Briefly: Continuous subcutaneous human ghrelin under restricted feeding: body weight, skeletal muscle, motor neurons, muscle strength (Example 6). In kind it is in vivo, mouse. The conditions noted are these: 50 μg/day continuous subcutaneous. The text has this:
In this Example, SOD1^G93A mice were raised under restricted feeding by which the daily food intake of the SOD1^G93A mice under voluntary intake conditions was set to approximately 90%. […] The administered ghrelin was examined for its effects on body weight, skeletal muscle mass, muscle strength, the number of motor neurons, and mRNA expression of Atrogin-1 and Muscle RING-finger protein-1 (MuRF1), which are both involved in skeletal muscle wasting.
(§2) In the experiment, 10-week-old SOD1^G93A and WT mice were used. The WT mice were divided into 2 group, one of which was raised under voluntary intake conditions (WT-control group) and the other of which was given 2.8 to 2.9 g/day which corresponded to approximately 90% of the daily food intake under voluntary intake conditions of the SOD1^G93A mice (WT-restricted feeding group).
(§3) Human ghrelin (50 μg/day, approximately 2 mg/kg/day) was dissolved in a vehicle (saline solution) to prepare a dosing solution. An osmotic pump (ALZET® MINI-OSMOTIC PUMP MODEL 1004, DURECT Corporation) filled with the dosing solution or a saline solution was subcutaneously implanted into the back of each mouse for continuous subcutaneous administration. The administration was started from the age of 10 weeks, and the osmotic pump was replaced with a fresh one 4 weeks later.
Their body weights were measured at the start day of administration and after 6 weeks to calculate the amount of change in body weight.
The forelimb muscle strength was measured using a rat/mouse simple sthenometer; 200 g scale (O'HARA & CO., LTD.) 7 weeks after the start of administration.
The lower-body skeletal muscle masses of the mice were measured using X-ray CT (Latheta LCT-200, Hitachi Aloka Medical, Ltd.) before the start of administration (at the age of 10 weeks) and after 7 weeks to determine the amount of change in skeletal muscle mass.
Then, the mice were anatomized, and the T9 regions of their spinal cords were extracted. Nissl-stained sections were prepared, and the number of motor neurons was histologically identified. Three non-adjacent sections were used per individual to measure the number of motor neurons present in the anterior horn. The measurement value of each group was calculated as a relative value when the average number of motor neurons in the WT-control group was defined as 100%.

Another assay deals with Atrogin-1 mRNA. Briefly: Atrogin-1 mRNA expression in gastrocnemial muscle by quantitative PCR under restricted feeding (Example 6). In kind it is in vivo, mouse. The settings on record: relative to WT-control group = 100%, 7 weeks after start. As for the experimental part: as §2, §3
(§4) The gastrocnemial muscles were isolated, and after mRNA extraction, the Atrogin-1 and MuRF1 mRNA expression levels were measured by quantitative PCR. The measurement value of each group was calculated as a relative value when the average mRNA expression level in the WT-control group was defined as 100%.

The test system of the next assay is MuRF1 mRNA. Nature of the assay: MuRF1 mRNA expression in gastrocnemial muscle by quantitative PCR under restricted feeding (Example 6). It is filed as in vivo, mouse. The conditions noted are these: relative to WT-control group = 100%, 7 weeks after start. As to the method:
as §2, §3, §4

In assay [7] the test system is SOD1^G93A mice. Briefly: Survival period with continuous subcutaneous human ghrelin from the age of 16 weeks (Example 8). It is filed as in vivo, mouse. The conditions noted are these: 50 μg/day continuous subcutaneous from age 16 weeks. As to the method: as §1, with “experiment, 16-week-old” for “experiment, 10-week-old”, “of 16” for “of 10”, “weeks. The survival period of each individual was analyzed.” for “weeks.”

[8] abbreviates: 50 μg/day continuous subcutaneous from age 10 weeks, after 8-weeks of administration, mean ± SE.
Setting [9] is: 1 mg/kg subcutaneously twice a day from age 10 weeks, after 8-weeks of administration, mean ± SE.

`CN(C)N(C)C(=O)[C@@]1(Cc2ccccc2)CCCN(C(=O)[C@@H](Cc2c[nH]c3ccccc23)NC(=O)C(C)(C)N)C1` [Anamorelin, 2-Amino-N-{(1R)-2-[3-benzyl-3-(N,N′,N′-trimethylhydrazinocarbonyl)piperidin-1-yl]-1-((1H-indol-3-yl)-2-oxoethyl)-2-methylpropionamide}]: in the assay with SOD1^G93A mice [1], the Survival period was 136 ± 2 (31) day, the “Amount of change in body weight” value was 0.9 ± 0.2 (31) g and the Food intake is reported as 139.5 ± 2.5 (31) g.
In the case of `C[C@H](NC(=O)[C@@H](Cc1c[nH]c2ccccc12)NC(=O)[C@@H](N)Cc1c[nH]cn1)C(=O)N[C@@H](Cc1c[nH]c2ccccc12)C(=O)N[C@H](Cc1ccccc1)C(=O)N[C@@H](CCCCN)C(N)=O` [GHRP-6, L-Histidyl-D-tryptophyl-L-alanyl-L-tryptophyl-D-phenylalanyl-L-lysinamide] (H-H[dW]AW[dF]K-NH2), in the assay on SOD1^G93A mice [1], the Survival period is reported as 138 ± 2 (30) day, the “Amount of change in body weight” value was 1.9 ± 0.2 (30) g and the Food intake is listed as 142.7 ± 2.1 (30) g.
With `C[C@H](NC(=O)[C@@H](Cc1ccc2ccccc2c1)NC(=O)[C@@H](C)N)C(=O)N[C@@H](Cc1c[nH]c2ccccc12)C(=O)N[C@H](Cc1ccccc1)C(=O)N[C@@H](CCCCN)C(N)=O` [Pralmorelin, D-Alanyl-D-(2-naphthyl)alanyl-L-alanyl-L-tryptophyl-D-phenylalanyl-L-lysinamide] (H-[dA][d2Nal]AW[dF]K-NH2), in assay [2], the “Increase of the proportion of PC-12 cells having dendrites and axons 1.5 times larger than the size of the cells, compared with a control group” value is recorded as “approximately 1.2 times”.
Consider “Human ghrelin: peptide of 28 amino acids (SEQ ID NO: 1), hydroxy group of the 3rd residue (serine) acylated with n-octanoyl group; endogenous GHS-R ligand (GSS(Octanoyl)FLSPEHQRVQQRKESKKPPAKLQPR; listed as Homo sapiens)”, for which the “Survival period longer on average than the survival days of the vehicle group” value in the assay with SOD1^G93A mice [3] (50 μg/day continuous subcutaneous from age 10 weeks) turned out to be 13.8%; in the assay with SOD1^G93A mice [5] (1 mg/kg subcutaneously twice a day from age 10 weeks) it was 21.8%; with SOD1^G93A mice [7], 17.6%. Further, the “Amount of change in body weight” value in the assay with SOD1^G93A mice [3] (setting [8]) was 2.6 ± 0.4 (15) g; in the assay on SOD1^G93A mice [5] (setting [9]) it was 2.1 ± 0.4 (13) g; with SOD1^G93A mice [6] (restricted feeding 2.8 to 2.9 g/day, 6 weeks after start), −1.4 ± 0.7**^,## g. For the same molecule, the Food intake in the assay on SOD1^G93A mice [3] (setting [8]) is 188.2 ± 3.6 (15) g; with SOD1^G93A mice [5] (setting [9]) it was 176.2 ± 3.5 (13) g. The Survival period in the assay with SOD1^G93A mice [3] (50 μg/day continuous subcutaneous from age 10 weeks, mean ± SE) is 173 ± 4 (15) day; in the assay on SOD1^G93A mice [5] (1 mg/kg subcutaneously twice a day from age 10 weeks until death, mean ± SE) it was 179 ± 8 (13) day; with SOD1^G93A mice [7] (mean ± SE), 180 ± 11 (9) day. Besides, the Forelimb muscle strength was 0.96 ± 0.05 (15) N in the assay on SOD1^G93A mice [3] (50 μg/day continuous subcutaneous, after 6-weeks of administration (16th week of age), mean ± SE) and 0.77 ± 0.06 N with SOD1^G93A mice [6] (restricted feeding, 7 weeks after start). Also, the “Lower-body skeletal muscle mass” value in the assay on SOD1^G93A mice [3] (50 μg/day continuous subcutaneous, after 8-weeks of administration, X-ray CT, mean ± SE) was 5.7 ± 0.3 (15) g. Besides, the “Plasma total cholesterol concentration” value in the assay on SOD1^G93A mice [3] (50 μg/day continuous subcutaneous, after 8-weeks of administration, mean ± SE) is on record as 85.8 ± 4.0 (15) mg/dL. Besides, the “The number of motor neurons” value is listed as 84 ± 7 (7)*^,## % in the assay with SOD1^G93A mice [4] and 66 ± 5 % in the assay with SOD1^G93A mice [6] (relative to WT-control group = 100%, restricted feeding, T9 anterior horn). Also, in the assay on SOD1^G93A mice [5] (1 mg/kg subcutaneously twice a day, from age 10 weeks to after 8-weeks of administration, mean ± SE), the “Change in forelimb muscle strength” value is listed as −0.08 ± 0.07 (13) N. For the same molecule, the “Amount of change in lower-body skeletal muscle” value with SOD1^G93A mice [6] (restricted feeding, 7 weeks after start, X-ray CT) is −0.9 ± 0.2**^,# g. In addition, the “Atrogin 1 mRNA expression level” value in the assay with Atrogin-1 mRNA is given as 205 ± 34 %. Moreover, the “MuRF1 mRNA expression level” value with MuRF1 mRNA stood at 207 ± 36 %.
